Assay results from patent publication US20170260178A1 (SPERO GYRASE, INC., priority 2012, published 2017).
Converted amounts (≈) assume the structure as drawn.

How the values were obtained:
S. aureus (ATCC 29213) = assay: Bacterial assay: MIC against S. aureus; assay type: cell-based, Staphylococcus aureus; conditions: Staphylococcus aureus, ATCC29213, read-out: minimal inhibitory concentration (MIC)
S. pyogenes (ATCC 51339) = assay: Bacterial assay: MIC against S. pyogenes; assay type: cell-based, Streptococcus pyogenes; conditions: Streptococcus pyogenes, ATCC51339, read-out: minimal inhibitory concentration (MIC)

Row | Compound | MIC (S. aureus (ATCC 29213)) [µg/mL] | MIC (S. pyogenes (ATCC 51339)) [µg/mL]
1 | CCNC(=O)Nc1nc2cc(-c3cnc(C(C)(C)O)nc3)cc(-c3cccc(N4CCC(C)(C(=O)O)CC4)n3)c2s1 [Compound 51, 1-[6-[2-(ethylcarbamoylamino)-5-[2-(1-hydroxy-1-methyl-ethyl)pyrimidin-5-yl]-1,3-benzothiazol-7-yl]-2-pyridyl]-4-methyl-piperidine-4-carboxylic acid] | 4 (≈ 6.95 µM) | ≤ 1
2 | CCNC(=O)Nc1nc2cc(-c3cnc(C(C)(C)O)nc3)cc(-c3ccnc(N4CCC(C)(C(=O)O)CC4)n3)c2s1 [Compound 52, 1-[4-[2-(ethylcarbamoylamino)-5-[2-(1-hydroxy-1-methyl-ethyl)pyrimidin-5-yl]-1,3-benzothiazol-7-yl]pyrimidin-2-yl]-4-methyl-piperidine-4-carboxylic acid] | 2 (≈ 3.47 µM) | ≤ 1
3 | CCNC(=O)Nc1nc2cc(-c3cnc(C(C)(C)O)nc3)cc(-c3cc(NC4CCC(C)(C(=O)O)CC4)ccn3)c2s1 (stereo not drawn) [Compound 54, 4-[[2-[2-(ethylcarbamoylamino)-5-[2-(1-hydroxy-1-methyl-ethyl)pyrimidin-5-yl]-1,3-benzothiazol-7-yl]-4-pyridyl]amino]-1-methyl-cyclohexanecarboxylic acid] | ≤ 1 | ≤ 1
4 | CCCNC(=O)Nc1nc2cc(-c3cnc(C(C)(C)O)nc3)cc(-c3ccccn3)c2s1 [Compound 57, 1-[5-[2-(1-hydroxy-1-methyl-ethyl)pyrimidin-5-yl]-7-(2-pyridyl)-1,3-benzothiazol-2-yl]-3-propyl-urea] | ≤ 1 | 2 (≈ 4.46 µM)
5 | CCNC(=O)Nc1nc2cc(-c3cnc(C(O)C(C)(C)C)nc3)cc(-c3ccccn3)c2s1 (stereo not drawn) [Compound 60, 1-ethyl-3-[5-[2-(1-hydroxy-2,2-dimethyl-propyl)pyrimidin-5-yl]-7-(2-pyridyl)-1,3-benzothiazol-2-yl]urea] | ≤ 1 | ≤ 1
6 | CCNC(=O)Nc1nc2cc(-c3cnc(C(C)O)nc3)cc(-c3cc(CN4CC(O)C4)ccn3)c2s1 (stereo not drawn) [Compound 65, 1-ethyl-3-[7-[4-[(3-hydroxyazetidin-1-yl)methyl]-2-pyridyl]-5-[2-(1-hydroxyethyl)pyrimidin-5-yl]-1,3-benzothiazol-2-yl]urea] | 2 (≈ 3.96 µM) | ≤ 1
7 | CCNC(=O)Nc1nc2cc(-c3cnc(C(C)O)nc3)cc(-c3cc(CN4CC(C)(O)C4)ccn3)c2s1 (stereo not drawn) [Compound 66, 1-ethyl-3-[5-[2-(1-hydroxyethyl)pyrimidin-5-yl]-7-[4-[(3-hydroxy-3-methyl-azetidin-1-yl)methyl]-2-pyridyl]-1,3-benzothiazol-2-yl]urea] | 2 (≈ 3.85 µM) | ≤ 1
8 | CCNC(=O)Nc1nc2cc(-c3cnc(C(C)(C)O)nc3)cc(-c3cc(CN4CCC(C)(O)C4)ccn3)c2s1 (stereo not drawn) [Compound 67, 1-ethyl-3-[5-[2-(1-hydroxy-1-methyl-ethyl)pyrimidin-5-yl]-7-[4-[(3-hydroxy-3-methyl-pyrrolidin-1-yl)methyl]-2-pyridyl]-1,3-benzothiazol-2-yl]urea] | ≤ 1 | ≤ 1
9 | CCNC(=O)Nc1nc2cc(-c3cnc(C(C)O)nc3)cc(-c3cc(CN4CCC[C@H]4C(=O)O)ccn3)c2s1 (stereo partly drawn) [Compound 72, (2S)-1-[[2-[2-(ethylcarbamoylamino)-5-[2-(1-hydroxyethyl)pyrimidin-5-yl]-1,3-benzothiazol-7-yl]-4-pyridyl]methyl]pyrrolidine-2-carboxylic acid] | 8 (≈ 14.6 µM) | 8 (≈ 14.6 µM)
10 | CCNC(=O)Nc1nc2cc(-c3cnc(C(C)O)nc3)cc(-c3cc(CN4CC[C@@H](O)C4)ccn3)c2s1 (stereo partly drawn) [Compound 77, 1-ethyl-3-[5-[2-(1-hydroxyethyl)pyrimidin-5-yl]-7-[4-[[(3R)-3-hydroxypyrrolidin-1-yl]methyl]-2-pyridyl]-1,3-benzothiazol-2-yl]urea] | ≤ 1 | ≤ 1
11 | CCNC(=O)Nc1nc2cc(-c3cnc(C(C)(C)O)nc3)cc(-c3nccc(NCCOC)n3)c2s1 [Compound 78, 1-ethyl-3-[5-[2-(1-hydroxy-1-methyl-ethyl)pyrimidin-5-yl]-7-[4-(2-methoxyethylamino)pyrimidin-2-yl]-1,3-benzothiazol-2-yl]urea] | ≤ 1 | ≤ 1
12 | CCNC(=O)Nc1nc2cc(-c3cnc(C(C)O)nc3)cc(-c3cc(CN4CCC(C)(O)C4)ccn3)c2s1 (stereo not drawn) [Compound 84, 1-ethyl-3-[5-[2-(1-hydroxyethyl)pyrimidin-5-yl]-7-[4-[(3-hydroxy-3-methyl-pyrrolidin-1-yl)methyl]-2-pyridyl]-1,3-benzothiazol-2-yl]urea] | ≤ 1 | ≤ 1
13 | CCNC(=O)Nc1nc2cc(-c3cnc(C(C)(C)O)nc3)cc(-c3nccc(NCCO)n3)c2s1 [Compound 85, 1-ethyl-3-[7-[4-(2-hydroxyethylamino)pyrimidin-2-yl]-5-[2-(1-hydroxy-1-methyl-ethyl)pyrimidin-5-yl]-1,3-benzothiazol-2-yl]urea] | 2 (≈ 4.04 µM) | ≤ 1
14 | CCNC(=O)Nc1nc2cc(-c3cnc(C(C)(C)O)nc3)cc(-c3nccc(N4CC(C)(O)C4)n3)c2s1 [Compound 86, 1-ethyl-3-[7-[4-(3-hydroxy-3-methyl-azetidin-1-yl)pyrimidin-2-yl]-5-[2-(1-hydroxy-1-methyl-ethyl)pyrimidin-5-yl]-1,3-benzothiazol-2-yl]urea] | 8 (≈ 15.4 µM) | ≤ 1
15 | CCNC(=O)Nc1nc2cc(-c3cnc(C(C)(C)OC(=O)N4CCN(C)CC4)nc3)cc(-c3ccccn3)c2s1 [Compound 89, [1-[5-[2-(ethylcarbamoylamino)-7-(2-pyridyl)-1,3-benzothiazol-5-yl]pyrimidin-2-yl]-1-methyl-ethyl] 4-methylpiperazine-1-carboxylate] | 8 (≈ 14.3 µM) | 2 (≈ 3.57 µM)
16 | CCNC(=O)Nc1nc2cc(-c3cnc(C(C)O)nc3)cc(-c3cc(O)ccn3)c2s1 (stereo not drawn) [Compound 90, 1-ethyl-3-[5-[2-(1-hydroxyethyl)pyrimidin-5-yl]-7-(4-hydroxy-2-pyridyl)-1,3-benzothiazol-2-yl]urea] | 16 (≈ 36.7 µM) | 2 (≈ 4.58 µM)
17 | CCNC(=O)Nc1nc2cc(-c3cnc(C(C)(C)O)nc3)cc(-c3nccc(NCCN4CCOCC4)n3)c2s1 [Compound 91, 1-ethyl-3-[5-[2-(1-hydroxy-1-methyl-ethyl)pyrimidin-5-yl]-7-[4-(2-morpholinoethylamino)pyrimidin-2-yl]-1,3-benzothiazol-2-yl]urea] | 2 (≈ 3.55 µM) | ≤ 1
18 | CCNC(=O)Nc1nc2cc(-c3cnc(C(C)O)nc3)cc(-c3nccc(N4CC(OC)C4)n3)c2s1 (stereo not drawn) [Compound 93, 1-ethyl-3-[5-[2-(1-hydroxyethyl)pyrimidin-5-yl]-7-[4-(3-methoxyazetidin-1-yl)pyrimidin-2-yl]-1,3-benzothiazol-2-yl]urea] | ≤ 1 | ≤ 1
19 | CCNC(=O)Nc1nc2cc(-c3cnc(C(C)O)nc3)cc(-c3nccc(N4CCOCC4)n3)c2s1 (stereo not drawn) [Compound 94, 1-ethyl-3-[5-[2-(1-hydroxyethyl)pyrimidin-5-yl]-7-(4-morpholinopyrimidin-2-yl)-1,3-benzothiazol-2-yl]urea] | ≤ 1 | ≤ 1
20 | CCNC(=O)Nc1nc2cc(-c3cnc(C(C)(C)O)nc3)cc(-c3nccc(N4CCC(C)(C(=O)O)CC4)n3)c2s1 [Compound 97, 1-[2-[2-(ethylcarbamoylamino)-5-[2-(1-hydroxy-1-methyl-ethyl)pyrimidin-5-yl]-1,3-benzothiazol-7-yl]pyrimidin-4-yl]-4-methyl-piperidine-4-carboxylic acid] | 4 (≈ 6.94 µM) | ≤ 1
21 | CCNC(=O)Nc1nc2cc(-c3cnc(C(O)(CC)CC)nc3)cc(-c3ccccn3)c2s1 [Compound 98, 1-ethyl-3-[5-[2-(1-ethyl-1-hydroxy-propyl)pyrimidin-5-yl]-7-(2-pyridyl)-1,3-benzothiazol-2-yl]urea] | ≤ 1 | ≤ 1
22 | CCNC(=O)Nc1nc2cc(-c3cnc(C(C)(C)O)nc3)cc(-c3nccc(CN4CCOCC4)n3)c2s1 [Compound 101, 1-ethyl-3-[5-[2-(1-hydroxy-1-methyl-ethyl)pyrimidin-5-yl]-7-[4-(morpholinomethyl)pyrimidin-2-yl]-1,3-benzothiazol-2-yl]urea] | ≤ 1 | ≤ 1
23 | CCNC(=O)Nc1nc2cc(-c3cnc(C(C)(C)O)nc3)cc(-c3cncc(CN4CCOCC4)n3)c2s1 [Compound 102, 1-ethyl-3-[5-[2-(1-hydroxy-1-methyl-ethyl)pyrimidin-5-yl]-7-[6-(morpholinomethyl)pyrazin-2-yl]-1,3-benzothiazol-2-yl]urea] | 16 (≈ 29.9 µM) | 16 (≈ 29.9 µM)
24 | CCNC(=O)Nc1nc2cc(-c3cnc(C(C)(C)O)nc3)cc(-c3nccc(NCC(C)(C)O)n3)c2s1 [Compound 103, 1-ethyl-3-[5-[2-(1-hydroxy-1-methyl-ethyl)pyrimidin-5-yl]-7-[4-[(2-hydroxy-2-methyl-propyl)amino]pyrimidin-2-yl]-1,3-benzothiazol-2-yl]urea] | 2 (≈ 3.83 µM) | ≤ 1
25 | CCNC(=O)Nc1nc2cc(-c3cnc(C(C)O)nc3)cc(-c3nccc(N4CC(O)C4)n3)c2s1 (stereo not drawn) [Compound 105, 1-ethyl-3-[7-[4-(3-hydroxyazetidin-1-yl)pyrimidin-2-yl]-5-[2-(1-hydroxyethyl)pyrimidin-5-yl]-1,3-benzothiazol-2-yl]urea] | 16 (≈ 32.5 µM) | ≤ 1
26 | CCNC(=O)Nc1nc2cc(-c3cnc(C(C)O)nc3)cc(-c3ncc(F)c(N4CCOCC4)n3)c2s1 (stereo not drawn) [Compound 106, 1-ethyl-3-[7-(5-fluoro-4-morpholino-pyrimidin-2-yl)-5-[2-(1-hydroxyethyl)pyrimidin-5-yl]-1,3-benzothiazol-2-yl]urea] | ≤ 1 | ≤ 1
27 | CCNC(=O)Nc1nc2cc(-c3cnc(C(C)(C)O)nc3)cc(-c3nccc(N4CCN(CCOC)CC4)n3)c2s1 [Compound 107, 1-ethyl-3-[5-[2-(1-hydroxy-1-methyl-ethyl)pyrimidin-5-yl]-7-[4-[4-(2-methoxyethyl)piperazin-1-yl]pyrimidin-2-yl]-1,3-benzothiazol-2-yl]urea] | ≤ 1 | ≤ 1
